Test results taken from publication PMC6688997 (Nature Communications, 2019).

How the values were obtained:
Assay in all cases: Kinase assay, 1 mM ATP
Format in all cases: biochemical
[1] = target: AMPKα1/β1/γ1 (Homo sapiens, UniProt Q13131)
Procedure: (§1) An off-chip mobility shift assay was performed by Carna Biosciences, Inc. (Kobe, Japan), according to their product instructions. […] The IC50 values were estimated according to the four-parameter logistic model.

[2] = target: ARG (Homo sapiens, UniProt P42684)
Sequence of ARG (P42684 whole entry): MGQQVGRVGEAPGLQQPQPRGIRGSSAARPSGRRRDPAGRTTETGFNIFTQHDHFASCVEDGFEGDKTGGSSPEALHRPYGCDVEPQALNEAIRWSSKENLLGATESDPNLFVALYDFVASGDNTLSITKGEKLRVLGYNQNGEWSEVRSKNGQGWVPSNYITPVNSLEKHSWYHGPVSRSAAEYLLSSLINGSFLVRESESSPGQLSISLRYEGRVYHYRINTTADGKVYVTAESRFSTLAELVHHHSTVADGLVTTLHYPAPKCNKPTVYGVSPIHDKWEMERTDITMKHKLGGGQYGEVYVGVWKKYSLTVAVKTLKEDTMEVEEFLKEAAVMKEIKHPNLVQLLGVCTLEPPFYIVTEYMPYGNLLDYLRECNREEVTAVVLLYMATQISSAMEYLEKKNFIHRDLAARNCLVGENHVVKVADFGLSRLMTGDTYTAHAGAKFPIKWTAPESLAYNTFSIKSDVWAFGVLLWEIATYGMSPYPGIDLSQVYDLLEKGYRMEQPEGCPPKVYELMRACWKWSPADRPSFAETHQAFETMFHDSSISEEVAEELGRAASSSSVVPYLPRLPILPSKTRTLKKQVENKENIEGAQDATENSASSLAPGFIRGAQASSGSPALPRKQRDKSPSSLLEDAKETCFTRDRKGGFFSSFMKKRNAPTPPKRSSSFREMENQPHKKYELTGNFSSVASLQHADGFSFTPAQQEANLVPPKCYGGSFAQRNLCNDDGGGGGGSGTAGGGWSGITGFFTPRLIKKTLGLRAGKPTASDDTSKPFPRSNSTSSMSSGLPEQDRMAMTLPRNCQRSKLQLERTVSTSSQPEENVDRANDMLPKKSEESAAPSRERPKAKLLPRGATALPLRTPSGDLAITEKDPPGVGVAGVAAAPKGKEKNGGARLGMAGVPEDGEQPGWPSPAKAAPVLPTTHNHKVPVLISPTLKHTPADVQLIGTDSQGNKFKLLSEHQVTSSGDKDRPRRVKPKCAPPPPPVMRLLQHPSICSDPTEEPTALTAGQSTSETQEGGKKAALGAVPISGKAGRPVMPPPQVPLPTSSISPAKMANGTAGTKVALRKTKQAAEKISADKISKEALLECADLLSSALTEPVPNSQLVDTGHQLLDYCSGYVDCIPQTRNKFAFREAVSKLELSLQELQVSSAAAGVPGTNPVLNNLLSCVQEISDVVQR
Procedure: as §1

[3] = target: BLK (Homo sapiens, UniProt P51451)
Procedure: as §1

[4] = target: T1, BRK (Homo sapiens, UniProt Q13882)
T1 construct: purchased Carna Biosciences
Procedure: as §1

[5] = target: BTK (Homo sapiens, UniProt Q06187)
Procedure: as §1

[6] = target: CDK2/CycE1 (Homo sapiens, UniProt P24941)
Procedure: as §1

[7] = target: CDK4/CycD3 (Homo sapiens, UniProt P11802)
Sequence of CDK4/CycD3 (P11802 whole entry): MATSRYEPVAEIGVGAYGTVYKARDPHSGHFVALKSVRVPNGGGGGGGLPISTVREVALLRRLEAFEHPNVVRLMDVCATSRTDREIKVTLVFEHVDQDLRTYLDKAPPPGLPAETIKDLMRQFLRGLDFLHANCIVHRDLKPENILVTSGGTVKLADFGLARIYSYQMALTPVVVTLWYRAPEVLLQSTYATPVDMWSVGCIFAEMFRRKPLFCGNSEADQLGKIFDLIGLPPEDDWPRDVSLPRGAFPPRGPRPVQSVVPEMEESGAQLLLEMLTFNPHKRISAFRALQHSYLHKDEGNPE
Sequence of CDK4/CycD3 (P30281 whole entry partner): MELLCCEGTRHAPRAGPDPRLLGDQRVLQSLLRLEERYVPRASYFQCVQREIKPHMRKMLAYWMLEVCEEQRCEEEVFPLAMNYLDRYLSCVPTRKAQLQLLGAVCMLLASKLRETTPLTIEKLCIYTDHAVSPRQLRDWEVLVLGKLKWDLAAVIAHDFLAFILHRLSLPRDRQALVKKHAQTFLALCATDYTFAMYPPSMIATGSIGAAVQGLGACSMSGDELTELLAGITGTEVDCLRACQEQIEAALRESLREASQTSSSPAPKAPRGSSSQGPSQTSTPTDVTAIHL
Procedure: as §1

[8] = target: CDK6/CycD3 (Homo sapiens, UniProt Q00534)
Procedure: as §1

[9] = target: CSK (Homo sapiens, UniProt P41240)
Procedure: as §1

[10] = target: CaMK4 (Homo sapiens, UniProt Q16566)
Procedure: as §1

[11] = target: DYRK1A (Homo sapiens, UniProt Q13627)
Procedure: as §1

[12] = target: DYRK1B (Homo sapiens, UniProt Q9Y463)
Procedure: as §1

[13] = target: EGFR (Homo sapiens, UniProt P00533)
Procedure: as §1

[14] = target: EPHA5 (Homo sapiens, UniProt P54756)
Procedure: as §1

[15] = target: FES (Homo sapiens, UniProt P07332)
Procedure: as §1

[16] = target: FGFR2 (Homo sapiens, UniProt P21802)
Procedure: as §1

[17] = target: FGR (Homo sapiens, UniProt P09769)
Sequence of FGR (P09769 whole entry): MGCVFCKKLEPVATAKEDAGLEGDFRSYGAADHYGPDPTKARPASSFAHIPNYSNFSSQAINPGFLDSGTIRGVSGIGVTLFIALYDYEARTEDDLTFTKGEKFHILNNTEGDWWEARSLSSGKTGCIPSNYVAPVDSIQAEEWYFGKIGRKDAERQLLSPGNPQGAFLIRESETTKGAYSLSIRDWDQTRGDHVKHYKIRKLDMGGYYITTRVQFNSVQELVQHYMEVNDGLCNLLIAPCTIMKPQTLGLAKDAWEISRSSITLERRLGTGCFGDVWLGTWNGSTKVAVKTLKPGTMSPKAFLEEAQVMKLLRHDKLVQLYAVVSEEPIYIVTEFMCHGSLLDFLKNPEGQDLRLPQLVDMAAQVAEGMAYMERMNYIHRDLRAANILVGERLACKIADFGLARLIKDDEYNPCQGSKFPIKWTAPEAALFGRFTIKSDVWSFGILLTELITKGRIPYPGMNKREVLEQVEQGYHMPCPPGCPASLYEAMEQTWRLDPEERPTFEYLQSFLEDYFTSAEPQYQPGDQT
Procedure: as §1

[18] = target: T2, FLT4 (Homo sapiens, UniProt P35916)
T2 construct: purchased Carna Biosciences
Procedure: as §1

[19] = target: HIPK4 (Homo sapiens, UniProt Q8NE63)
Procedure: as §1

[20] = target: T3, IRR (Homo sapiens, UniProt P14616)
T3 construct: purchased Carna Biosciences
Procedure: as §1

[21] = target: T4, JAK1 (Homo sapiens, UniProt P23458)
T4 construct: purchased Carna Biosciences
Procedure: as §1

[22] = target: T5, KDR (Homo sapiens, UniProt P35968)
T5 construct: purchased Carna Biosciences
Procedure: as §1

[23] = target: T6, LYNb (Homo sapiens, UniProt P07948)
T6 construct: purchased Carna Biosciences
Procedure: as §1

[24] = target: T7, MINK (Homo sapiens, UniProt Q8N4C8)
T7 construct: purchased Carna Biosciences
Procedure: as §1

[25] = target: MST1 (Homo sapiens, UniProt Q13043)
Procedure: as §1

[26] = target: T8, NEK1 (Homo sapiens, UniProt Q96PY6)
T8 construct: purchased Carna Biosciences
Procedure: as §1

[27] = target: PDK1 (Homo sapiens, UniProt O15530)
Procedure: as §1

[28] = target: PIM2 (Homo sapiens, UniProt Q9P1W9)
Sequence of PIM2 (Q9P1W9 whole entry): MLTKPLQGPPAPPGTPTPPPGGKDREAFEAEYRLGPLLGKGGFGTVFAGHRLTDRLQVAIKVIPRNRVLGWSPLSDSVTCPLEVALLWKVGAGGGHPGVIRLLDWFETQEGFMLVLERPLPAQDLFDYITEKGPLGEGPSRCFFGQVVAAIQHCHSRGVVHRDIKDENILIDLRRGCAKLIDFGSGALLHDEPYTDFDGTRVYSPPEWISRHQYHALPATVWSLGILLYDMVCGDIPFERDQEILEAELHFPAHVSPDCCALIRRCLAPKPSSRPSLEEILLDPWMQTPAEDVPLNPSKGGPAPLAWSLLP
Procedure: as §1

[29] = target: PKACα (Homo sapiens, UniProt P17612)
Procedure: as §1

[30] = target: PLK1 (Homo sapiens, UniProt P53350)
Sequence of PLK1 (P53350 whole entry): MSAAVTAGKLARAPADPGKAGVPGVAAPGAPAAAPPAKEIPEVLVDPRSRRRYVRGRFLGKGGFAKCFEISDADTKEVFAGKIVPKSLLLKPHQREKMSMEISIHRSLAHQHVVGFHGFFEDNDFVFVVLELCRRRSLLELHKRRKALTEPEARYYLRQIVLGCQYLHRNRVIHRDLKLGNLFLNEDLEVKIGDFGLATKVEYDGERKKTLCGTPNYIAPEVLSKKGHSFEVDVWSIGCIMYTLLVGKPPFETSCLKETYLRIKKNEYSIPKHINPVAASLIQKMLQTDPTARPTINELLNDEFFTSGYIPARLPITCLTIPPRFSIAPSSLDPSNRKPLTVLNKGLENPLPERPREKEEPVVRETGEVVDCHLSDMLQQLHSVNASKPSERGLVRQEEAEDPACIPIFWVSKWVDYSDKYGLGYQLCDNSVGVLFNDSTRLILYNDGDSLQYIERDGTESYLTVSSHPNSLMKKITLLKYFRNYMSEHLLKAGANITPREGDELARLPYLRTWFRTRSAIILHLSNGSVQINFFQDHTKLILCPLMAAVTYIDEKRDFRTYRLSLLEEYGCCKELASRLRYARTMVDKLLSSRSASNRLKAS
Procedure: as §1

[31] = target: T9, RET (Homo sapiens, UniProt P07949)
T9 construct: purchased Carna Biosciences
Procedure: as §1

[32] = target: T10, RET(S891A) (Homo sapiens, UniProt P07949, S891A)
T10 construct: purchased Carna Biosciences
Procedure: as §1

[33] = target: ROCK1 (Homo sapiens, UniProt Q13464)
Procedure: as §1

[34] = target: T11, RON (Homo sapiens, UniProt Q04912)
T11 construct: purchased Carna Biosciences
Procedure: as §1

[35] = target: T12, RSK1 (Homo sapiens, UniProt Q15418)
T12 construct: purchased Carna Biosciences
Procedure: as §1

[36] = target: RSK3 (Homo sapiens, UniProt Q15349)
Procedure: as §1

[37] = target: T13, SIK (Homo sapiens, UniProt P57059)
T13 construct: purchased Carna Biosciences
Procedure: as §1

[38] = target: SYK (Homo sapiens, UniProt P43405)
Procedure: as §1

[39] = target: T14, TEC (Homo sapiens, UniProt P42680)
T14 construct: purchased Carna Biosciences
Procedure: as §1

[40] = target: T15, TIE2 (Homo sapiens, UniProt Q02763)
T15 construct: purchased Carna Biosciences
T15 sequence (Q02763 23-1124): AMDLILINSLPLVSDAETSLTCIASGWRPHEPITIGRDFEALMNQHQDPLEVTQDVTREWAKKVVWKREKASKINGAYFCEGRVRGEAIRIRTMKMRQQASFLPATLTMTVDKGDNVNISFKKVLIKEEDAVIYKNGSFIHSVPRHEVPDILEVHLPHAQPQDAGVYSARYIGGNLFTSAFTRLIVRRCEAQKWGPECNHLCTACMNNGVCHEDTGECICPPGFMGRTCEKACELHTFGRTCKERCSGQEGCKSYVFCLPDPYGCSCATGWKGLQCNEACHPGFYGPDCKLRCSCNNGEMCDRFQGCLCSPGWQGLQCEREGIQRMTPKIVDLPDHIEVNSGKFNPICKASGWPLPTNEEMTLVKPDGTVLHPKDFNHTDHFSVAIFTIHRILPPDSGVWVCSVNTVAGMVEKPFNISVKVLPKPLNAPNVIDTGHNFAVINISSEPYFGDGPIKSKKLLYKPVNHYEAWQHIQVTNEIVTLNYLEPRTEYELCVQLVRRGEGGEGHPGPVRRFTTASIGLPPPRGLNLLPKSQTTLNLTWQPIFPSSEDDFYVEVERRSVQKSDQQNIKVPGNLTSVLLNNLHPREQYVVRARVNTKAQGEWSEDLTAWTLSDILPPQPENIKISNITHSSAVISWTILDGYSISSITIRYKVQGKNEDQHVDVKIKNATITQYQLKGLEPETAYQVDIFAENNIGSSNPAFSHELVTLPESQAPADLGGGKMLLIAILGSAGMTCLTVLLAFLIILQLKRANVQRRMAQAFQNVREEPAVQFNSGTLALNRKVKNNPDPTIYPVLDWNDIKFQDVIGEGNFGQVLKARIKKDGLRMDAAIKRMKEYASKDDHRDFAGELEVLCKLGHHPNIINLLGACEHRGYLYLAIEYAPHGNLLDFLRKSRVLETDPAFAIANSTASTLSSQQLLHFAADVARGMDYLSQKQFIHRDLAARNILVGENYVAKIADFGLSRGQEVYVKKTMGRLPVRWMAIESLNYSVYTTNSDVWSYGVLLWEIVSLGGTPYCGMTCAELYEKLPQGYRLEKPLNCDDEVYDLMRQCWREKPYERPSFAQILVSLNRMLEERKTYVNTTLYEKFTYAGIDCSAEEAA
Procedure: as §1

[41] = target: T16, TSSK1 (Homo sapiens, UniProt Q9BXA7)
T16 construct: purchased Carna Biosciences
T16 sequence (Q9BXA7 whole entry): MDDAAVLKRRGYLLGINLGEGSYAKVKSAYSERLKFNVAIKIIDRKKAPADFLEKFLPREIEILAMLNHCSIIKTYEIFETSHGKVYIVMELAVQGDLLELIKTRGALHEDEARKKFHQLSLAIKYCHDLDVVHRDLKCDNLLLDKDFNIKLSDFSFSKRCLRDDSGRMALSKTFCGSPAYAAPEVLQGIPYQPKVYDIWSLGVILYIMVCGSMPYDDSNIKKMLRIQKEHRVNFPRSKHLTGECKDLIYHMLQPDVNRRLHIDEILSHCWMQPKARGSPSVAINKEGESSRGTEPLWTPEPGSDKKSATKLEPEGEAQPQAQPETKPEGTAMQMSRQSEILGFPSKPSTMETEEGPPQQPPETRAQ
Procedure: as §1

[42] = target: YES (Homo sapiens, UniProt P07947)
Procedure: as §1

[43] = target: p38δ (Homo sapiens, UniProt O15264)
Procedure: as §1

Q: `C[C@@H](N)COc1ccc(-c2cnc3ccc(N[C@H](C)c4cccc(F)c4)nn23)cc1.O=C(O)CCCCC(=O)O` [DS-6051b] was tested. Which inhibition at 0.2 µM [1] did it give?
A: The inhibition at 0.2 µM was -3.6%.

Q: And the inhibition at 0.2 µM [2]?
A: The inhibition at 0.2 µM was -0.122%.

Q: What about the inhibition at 0.2 µM [3] of the same compound?
A: The inhibition at 0.2 µM was 0.178%.

Q: And the inhibition at 0.2 µM [4]?
A: Its inhibition at 0.2 µM is 13.4%.

Q: And the inhibition at 0.2 µM [5]?
A: The inhibition at 0.2 µM was 17.9%.

Q: And the inhibition at 0.2 µM [6]?
A: The inhibition at 0.2 µM was -20.2%.

Q: And the inhibition at 0.2 µM [7]?
A: The inhibition at 0.2 µM was -0.7%.

Q: What about the inhibition at 0.2 µM [8] of the same compound?
A: The inhibition at 0.2 µM was 2.1%.

Q: What about the inhibition at 0.2 µM [9] of the same compound?
A: The inhibition at 0.2 µM was 1%.

Q: And the inhibition at 0.2 µM [10]?
A: Its inhibition at 0.2 µM is -3.3%.

Q: What about the inhibition at 0.2 µM [11] of the same compound?
A: Its inhibition at 0.2 µM is -11.4%.

Q: What about the inhibition at 0.2 µM [12] of the same compound?
A: The inhibition at 0.2 µM was -8.2%.

Q: What about the inhibition at 0.2 µM [13] of the same compound?
A: The inhibition at 0.2 µM was 3.7%.

Q: And the inhibition at 0.2 µM [14]?
A: Its inhibition at 0.2 µM is -9%.

Q: What about the inhibition at 0.2 µM [15] of the same compound?
A: Its inhibition at 0.2 µM is 5.1%.

Q: What about the inhibition at 0.2 µM [16] of the same compound?
A: The inhibition at 0.2 µM was 4.8%.

Q: What about the inhibition at 0.2 µM [17] of the same compound?
A: The inhibition at 0.2 µM was 6.3%.

Q: And the inhibition at 0.2 µM [18]?
A: Its inhibition at 0.2 µM is -4.4%.

Q: And the inhibition at 0.2 µM [19]?
A: Its inhibition at 0.2 µM is -1.6%.

Q: What about the inhibition at 0.2 µM [20] of the same compound?
A: The inhibition at 0.2 µM was 16.8%.

Q: What about the inhibition at 0.2 µM [21] of the same compound?
A: The inhibition at 0.2 µM was -2%.

Q: And the inhibition at 0.2 µM [22]?
A: Its inhibition at 0.2 µM is -5.4%.

Q: What about the inhibition at 0.2 µM [23] of the same compound?
A: The inhibition at 0.2 µM was 4.8%.

Q: What about the inhibition at 0.2 µM [24] of the same compound?
A: The inhibition at 0.2 µM was -2.2%.

Q: What about the inhibition at 0.2 µM [25] of the same compound?
A: The inhibition at 0.2 µM was 11.5%.

Q: What about the inhibition at 0.2 µM [26] of the same compound?
A: Its inhibition at 0.2 µM is -5.2%.

Q: What about the inhibition at 0.2 µM [27] of the same compound?
A: Its inhibition at 0.2 µM is -4.9%.

Q: What about the inhibition at 0.2 µM [28] of the same compound?
A: Its inhibition at 0.2 µM is -14%.

Q: What about the inhibition at 0.2 µM [29] of the same compound?
A: Its inhibition at 0.2 µM is -7%.

Q: And the inhibition at 0.2 µM [30]?
A: Its inhibition at 0.2 µM is -9.2%.

Q: What about the inhibition at 0.2 µM [31] of the same compound?
A: Its inhibition at 0.2 µM is 0.6%.

Q: What about the inhibition at 0.2 µM [32] of the same compound?
A: The inhibition at 0.2 µM was 2.5%.

Q: What about the inhibition at 0.2 µM [33] of the same compound?
A: The inhibition at 0.2 µM was -4.5%.

Q: And the inhibition at 0.2 µM [34]?
A: The inhibition at 0.2 µM was 9.2%.

Q: What about the inhibition at 0.2 µM [35] of the same compound?
A: The inhibition at 0.2 µM was 2.1%.

Q: What about the inhibition at 0.2 µM [36] of the same compound?
A: The inhibition at 0.2 µM was -3.2%.

Q: What about the inhibition at 0.2 µM [37] of the same compound?
A: Its inhibition at 0.2 µM is 8.9%.

Q: And the inhibition at 0.2 µM [38]?
A: The inhibition at 0.2 µM was -2.5%.

Q: What about the inhibition at 0.2 µM [39] of the same compound?
A: The inhibition at 0.2 µM was -1.2%.

Q: What about the inhibition at 0.2 µM [40] of the same compound?
A: Its inhibition at 0.2 µM is -2.2%.

Q: What about the inhibition at 0.2 µM [41] of the same compound?
A: Its inhibition at 0.2 µM is -2.6%.

Q: What about the inhibition at 0.2 µM [42] of the same compound?
A: The inhibition at 0.2 µM was 9%.

Q: What about the inhibition at 0.2 µM [43] of the same compound?
A: Its inhibition at 0.2 µM is -1.3%.
